In ChEMBL document CHEMBL3272136, “A new series of cardioselective adrenergic beta-receptor blocking compounds. 1-(2-Acyl-4-acylaminophenoxy)-3-isopropylaminopropan-2-ols” (1976):

Legend:
Felis catus [1] = test: In vivo beta-1 adrenergic receptor blocking activity in iv dosed cat assessed as half dose required for desensitizing isoproterenol-induced tachycardia after 3.5 mins; assay type: functional
Canis familiaris = test: Antiarrhythmic activity in iv dosed dog assessed as dose required for reversal of ouabain-induced cardiac arrhythmia; assay type: functional, Canis lupus familiaris, Heart
Felis catus [2] = test: Ratio of in vivo beta-2 adrenergic receptor blocking activity in iv dosed cat assessed as half dose required for desensitizing isoproterenol-induced diastolic hypotensive response to in vivo beta-1 adrenergic receptor blocking activity in iv dosed cat assessed as half dose required for desensitizing isoproterenol-induced tachycardia; assay type: functional
Felis catus [3] = test: In vivo beta-2 adrenergic receptor blocking activity in iv dosed cat assessed as half dose required for desensitizing isoproterenol-induced diastolic hypotensive response after 3.5 mins; assay type: functional

SMILES | Activity (Felis catus [1]) | Activity (Canis familiaris) | Ratio (Felis catus [2]) | Activity (Felis catus [3])
CCCCC(=O)Nc1ccc(OCC(O)CNC(C)C)c(C(C)=O)c1 (centres undefined) | 0.033 mg/kg | 4.8 mg/kg | 27 | 0.89 mg/kg
CCCCCC(=O)Nc1ccc(OCC(O)CNC(C)C)c(C(C)=O)c1 (centres undefined) | 0.029 mg/kg | 3.2 mg/kg | 29.31 | 0.85 mg/kg
CCCCCCC(=O)Nc1ccc(OCC(O)CNC(C)C)c(C(C)=O)c1 (centres undefined) | 0.04 mg/kg | 2.7 mg/kg | 12.5 | 0.5 mg/kg
CCC(=O)Nc1ccc(OCC(O)CNC(C)C)c(C(=O)CC)c1 (centres undefined) | 0.026 mg/kg | 6.4 mg/kg | 15.77 | 0.41 mg/kg
CCCC(=O)Nc1ccc(OCC(O)CNC(C)C)c(C(=O)CC)c1 (centres undefined) | 0.079 mg/kg | 6.1 mg/kg | 14.18 | 1.12 mg/kg
CCCC(=O)Nc1ccc(OCC(O)CNC(C)C)c(C(=O)CCC)c1 (centres undefined) | 0.23 mg/kg | 3.5 mg/kg | 20.78 | 4.78 mg/kg
CC(=O)c1cc(NC(=O)C(C)C)ccc1OCC(O)CNC(C)C (centres undefined) | 0.1 mg/kg | 17.2 mg/kg | 18.5 | 1.85 mg/kg
CC(=O)c1cc(NC(=O)CC(C)C)ccc1OCC(O)CNC(C)C (centres undefined) | 0.11 mg/kg | 3.8 mg/kg | 19.09 | 2.1 mg/kg
CC(=O)c1cc(NC(=O)Cc2ccccc2)ccc1OCC(O)CNC(C)C (centres undefined) | 0.03 mg/kg | 12.6 mg/kg | 5.33 | 0.16 mg/kg
CC(=O)c1cc(NC(=O)c2ccccc2)ccc1OCC(O)CNC(C)C (centres undefined) | 0.54 mg/kg | 5.8 mg/kg | – | 1 mg/kg
CCC(=O)Nc1ccc(OCC(O)CNC(C)C)c(C(C)=O)c1 (racemic) | 0.063 mg/kg | 22.5 mg/kg | 8.25 | 0.52 mg/kg
CCCCCCCC(=O)Nc1ccc(OCC(O)CNC(C)C)c(C(C)=O)c1 (racemic) | 0.05 mg/kg | 3.9 mg/kg | 13.84 | 0.692 mg/kg
CCCC(=O)Nc1ccc(OCC(O)CNC(C)C)c(C(C)=O)c1 (centres undefined) [ACEBUTOLOL] | 0.13 mg/kg | 8.1 mg/kg | 20 | 2.6 mg/kg
CC(=O)Nc1ccc(OCC(O)CNC(C)C)c(C(C)=O)c1 (centres undefined) [DIACETOLOL] | 0.089 mg/kg | >15 mg/kg | 3.59 | 0.32 mg/kg
CC(=O)Nc1ccc(OCC(O)CNC(C)C)cc1 (centres undefined) [PRACTOLOL] | 0.158 mg/kg | >35 mg/kg | 10.13 | 1.6 mg/kg
